Experimental data as given in patent US4618604A, “Composition and method for improving feed utilization or tissue production in animals” (Monsanto Company, priority 1984, dated 1986).
Counter-ions that a name gives are not always drawn.

What was measured:
[1] = Chick growth feeding trial (weight gain and feed conversion, treated vs untreated chicks); assay type: in vivo
[2] = Pig growth feeding trials I-III (weight gain and feed efficiency, treated vs untreated pigs); assay type: in vivo; conditions: Example 2, growing period about 18-90 kg
Excerpt: The following examples are included to illustrate the improved feed utilization and/or tissue producing effect of the substituted phenylphosphinic acid derivatives of the present invention. It should be understood that examples are included to illustrate the practice of the present invention and are not intended to limit the scope of the invention. It should be further understood that the dosage levels recited in the following examples are only illustrative and are not meant to limit the scope of the invention. Unless otherwise noted, all percentages are by weight. Comparisons are between the numerical average for treated animals and the numerical average for untreated animals.
A swine diet for growing pigs prepared from the following types and amounts of ingredients:
Three trials were conducted wherein pigs were administered 2-methoxyphenylmethylphosphinic acid at dosage levels of 2.0, 10.0, 20.0 (TRIAL I); 0.5, 2.0, 8.0 (TRIAL II); and 0.5, 2.0, 8.0 (TRIAL III) milligrams per kilogram of finished feed throughout a growing period of about 18-90 kg.

[3] = Example 10, 1, 20, 60 or 100 mg per kg feed
[4] = trials I and II, 2.0 mg/kg finished feed
[5] = Examples 4 and 6, 1 mg and 10 mg per kg feed

CP(=O)(O)c1ccccc1N [2-aminophenylmethylphosphinic acid hydrochloride salt]
average daily weight gain ([1]; Example 9, 2.0 mg per kg feed): higher average daily weight gain than untreated chicks

CP(=O)(O)c1ccccc1C(=O)O [2-carboxylphenylmethylphosphinic acid, 2-carboxyphenylmethylphosphinic acid]
average daily weight gain ([1]; Example 7, 11 mg per kg feed): higher average daily weight gain than untreated chicks

CP(=O)(O)c1ccccc1Cl [2-chlorophenylmethylphosphinic acid]
daily weight gain ([1]; Example 5, 0.5 mg per kg feed): higher daily weight gain than untreated chicks

CCP(=O)(O)c1ccccc1OC [2-methoxyphenylethylphosphinic acid]
average daily weight gain ([1]; Example 8, 10 mg per kg feed): higher average daily weight gain than untreated chicks

COc1ccccc1P(C)(=O)O [2-methoxyphenylmethylphosphinic acid]
average daily gain [1, 3]: higher average daily gain
conversion of feed to weight gain [1, 3]: converted feed to weight gain more efficiently than untreated chicks
weight gain ([2]; 10.0 and 20.0 mg/kg finished feed, vs untreated): gained weight faster than untreated pigs
daily weight gain [2, 4]: faster daily weight gain
feed efficiency [2, 4]: improved feed efficiency

Cc1ccccc1P(C)(=O)O [2-methylphenylmethylphosphinic acid]
conversion of feed to weight gain ([1]; Example 3, 0.5 to 4.0 mg/kg feed, 45-48 days): converted feed to weight gain more efficiently than untreated chicks

CP(=O)(O)c1ccccc1[N+](=O)[O-] [2-nitrophenylmethylphosphinic acid]
average daily weight gain [1, 5]: higher average daily weight gain than untreated chicks

CP(=O)(O)c1ccccc1O [Ammonium 2-hydroxyphenylmethylphosphinate]
average daily weight gain [1, 5]: higher average daily weight gain than untreated chicks
